Tests used:
biosimilar AVASTIN® = experiment: Viscosity of aqueous solutions of biosimilar AVASTIN® with viscosity-lowering agents; assay type: physicochemical
REMICADE® [1] = experiment: Viscosity of aqueous solutions of […]® with viscosity-lowering agents; assay type: physicochemical
HERCEPTIN® = experiment: Viscosity of aqueous solutions of HERCEPTIN® with viscosity-lowering agents; assay type: physicochemical; conditions: 0.25M salt, 25° C., pH 7.0
TYSABRI® = experiment: Viscosity of aqueous solutions of TYSABRI® with viscosity-lowering agents; assay type: physicochemical; conditions: 0.25M agent, 25° C., pH 7.0
Procedure: All viscosities of well-mixed aqueous mAb solutions were measured using either a mVROC microfluidic viscometer (RheoSense) or a DV2T cone and plate viscometer (Brookfield; “C & P”) after a 5 minute equilibration at 25° C. […] The mVROC viscometer was equipped with an “A” or “B” chip, each manufactured with a 50 micron channel. Typically, 0.10 mL of protein solution was back-loaded into a gastight microlab instrument syringe (Hamilton; 100 μL), affixed to the chip, and measured at multiple flow rates, approximately 20%, 40%, and 60% of the maximum pressure for each chip. […] An average absolute viscosity and standard deviation was then calculated from at least these three measurements. The C & P viscometer was equipped with a CPE40 or CPE52 spindle (cone angle of 0.8° and 3.0°, respectively) and 0.50 mL samples were measured at multiple shear rates between 2 and 400 s^−1. Specifically, samples were measured for 30 seconds each at 22.58, 24.38, 26.25, 28.13, 30, 31.88, 45, 67.5, 90, 112.5, 135, 157.5, 180, 202.5, 247, 270, 292.5, 315, 337.5, 360, 382, 400 s^−1, starting at a shear rate that gave at least 10% torque, and continuing until instrument torque reached 100%. An extrapolated zero-shear viscosity was then determined from a plot of dynamic viscosity versus shear rate for the samples measured on a DV2T cone and plate viscometer. The extrapolated zero-shear viscosities reported are the average and standard deviation of at least three measurements.
(§3) Viscosities were measured using a RheoSense mVROC microfluidic viscometer equipped with an “A” or “B” chip.
Subsequently, the aqueous drug product was purified, buffer exchanged, concentrated, dried, reconstituted, and analyzed as described in the same manner. Viscosities reported were measured on a RheoSense mVROC microfluidic viscometer.

VECTIBIX® = experiment: Viscosity of aqueous solutions of VECTIBIX® with viscosity-lowering agents; assay type: physicochemical; conditions: 0.25M agent, 25° C., pH 7.0
Source text: (§1) (unless otherwise indicated).

ARZERRA® = experiment: Viscosity of aqueous solutions of ARZERRA® with viscosity-lowering agents; assay type: physicochemical; conditions: 274 ± 10 mg/mL ARZERRA; 0.25M agent; 25° C., pH 7.0
Source text: as §1

REMICADE® [2] = experiment: Monomer content of […]® solutions by size exclusion chromatography; assay type: physicochemical; conditions: 0.25M agent
Procedure: Biophysical properties of solutions of […]® formulated with 0.25 M CSAA were assessed over 90 days. Samples of […]® formulated with 0.25 M CSAA were prepared as described in Example 1 above.
(§2) Following reconstitution, the viscosity of each solution was measured using the microfluidic viscometer as described in previous examples. The solutions were then back-loaded into 1 mL BD insulin syringes with 27, 29, or 31 gauge fixed needles. The force required to extrude the concentrated […]® solutions was then measured using an Instron at a rate of displacement equivalent to a fluid flow rate of 3 mL/min. The expelled solution was collected from the syringe and analyzed by size-exclusion chromatography.

antigen = experiment: Antigen binding, […]®-specific ELISA assay; conditions: storage at room temperature, CSAA sample: REMICADE 219 mg/mL, pH 7, 0.25M CSAA
Procedure: Biophysical properties of solutions of […]® formulated with 0.25 M CSAA were assessed over 90 days. Samples of […]® formulated with 0.25 M CSAA were prepared as described in Example 1 above. […] (Table 20). Additionally, antigen binding of this processed […]® protein was measured with a […]®-specific ELISA assay and no decrease in binding was seen between days 0 and […] (Table 20).

Sprague-Dawley rats = experiment: Subcutaneous injection toxicity and irritation (Draize evaluation scores); assay type: in vivo, rat; conditions: 0.5 mL of 0.25 M CSAA subcutaneously, 1 to 3 daily injections
Procedure: Thirty 11-week old Sprague-Dawley rats were separated into 6 groups of 5 rats each (3 saline control groups and 3 CSAA groups). The rats were injected subcutaneously with 0.5 mL of either endotoxin-free phosphate-buffered saline or endotoxin-free 0.25 M CSAA according to the following schedule: One group from each condition was injected once on day 1 and then sacrificed […]; one group from each condition was injected once on day 1 and once on day 2 and then sacrificed 24 hours after the second injection; and one group from each condition was injected once on day 1, once on day 2, and once on day 3, and then sacrificed 24 hours after the third injection.
Clinical observations were recorded for any pharmaco-toxicological signs pre-dose, immediately post-dose, at 1 and 4 hours (±15 minutes) post-dose, and daily thereafter. Irritation, if any, at injection sites was scored using the Draize evaluation scores pre-dose, immediately post-dose, at 1 hour (±15 minutes) post dose, and prior to sacrifice.

REMICADE® [3] = experiment: Syringe extrusion force of concentrated […]® solutions (Instron); assay type: physicochemical; conditions: 1 mL BD insulin syringe, 3 mL/min, REMICADE 224-230 mg/mL, 0.25M agent
Procedure: as §2

REMICADE® [4] = experiment: Monomer content of […]® solutions by size exclusion chromatography; assay type: physicochemical; conditions: storage at room temperature, CSAA sample: REMICADE 219 mg/mL, pH 7, 0.25M CSAA
biosimilar ERBITUX® = experiment: Viscosity of aqueous solutions of biosimilar ERBITUX® with viscosity-lowering agents; conditions: for Viscosity / Fold Reduction: pH 7.0, 0.25M agent; for Fold Reduction: vs phosphate buffer
biosimilar RITUXAN® = experiment: Viscosity of aqueous solutions of biosimilar RITUXAN® with viscosity-lowering agents; conditions: 202 ± 2 mg/mL RITUXAN; 0.25M agent; 25° C., pH 7.0;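 note: absolute viscosity of aqueous antibody solutions determined by microfluidic viscometry (mVROC chip, 50 micron channel) at several flow rates after 5 min equilibration, mean of at least three readings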
Procedure: All viscosities of well-mixed aqueous mAb solutions were measured using either a mVROC microfluidic viscometer (RheoSense) or a DV2T cone and plate viscometer (Brookfield; “C & P”) after a 5 minute equilibration at 25° C. […] The mVROC viscometer was equipped with an “A” or “B” chip, each manufactured with a 50 micron channel. Typically, 0.10 mL of protein solution was back-loaded into a gastight microlab instrument syringe (Hamilton; 100 μL), affixed to the chip, and measured at multiple flow rates, approximately 20%, 40%, and 60% of the maximum pressure for each chip. […] An average absolute viscosity and standard deviation was then calculated from at least these three measurements. The C & P viscometer was equipped with a CPE40 or CPE52 spindle (cone angle of 0.8° and 3.0°, respectively) and 0.50 mL samples were measured at multiple shear rates between 2 and 400 s^−1. […] An extrapolated zero-shear viscosity was then determined from a plot of dynamic viscosity versus shear rate for the samples measured on a DV2T cone and plate viscometer. The extrapolated zero-shear viscosities reported are the average and standard deviation of at least three measurements.
as §3

## camphorsulfonic acid arginine [CSAA]
Biosimilar AVASTIN®; 200 ± 5 mg/mL mAb, pH 7.0, 25° C., [Salt] 0.25 M of anion, C & P viscometer
  Viscosity: 48.5 ± 1.9 cP
Biosimilar AVASTIN®; 200±9 mg/mL mAb, 0.25 M CSAA, FIG. 3
  pH of minimum viscosity and maximum viscosity-lowering effect: ~7
Biosimilar AVASTIN®; 228 ± 5 mg/mL mAb, agent 0.25 M, 25° C., pH 7.0
  Viscosity: 116 ± 2 cP
REMICADE® [1]; 128 mg/mL REMICADE, isotonic (0.3 molal) excipient
  Viscosity: 25.8 ± 0.8 cP
REMICADE® [1]; 0.25M agent vs PB, Table 17
  Viscosity reduction: about 29 fold
REMICADE® [1]; 166 ± 4 mg/mL REMICADE, 0.25M agent, 25° C., pH 7.0
  Viscosity: 19.1 ± 0.2 cP
REMICADE® [1]; 215 ± 5 mg/mL REMICADE, [CSAA] 0 M, 25° C., pH 7.0
  Viscosity: 1557 ± 22 cP
REMICADE® [1]; 215 ± 5 mg/mL REMICADE, [CSAA] 0.20 M, 25° C., pH 7.0
  Viscosity: 81.3 ± 1.0 cP
REMICADE® [1]; 215 ± 5 mg/mL REMICADE, [CSAA] 0.25 M, 25° C., pH 7.0
  Viscosity: 53.7 ± 9.3 cP
REMICADE® [1]; 215 ± 5 mg/mL REMICADE, [CSAA] 0.35 M, 25° C., pH 7.0
  Viscosity: 38.2 ± 0.9 cP
REMICADE® [1]; 222 ± 6 mg/mL REMICADE, 0.25M agent, 25° C., pH 7.0
  Viscosity: 53.7 ± 9.3 cP
HERCEPTIN®; 216 ± 0 mg/mL HERCEPTIN
  Viscosity: 55.7 ± 2.3 cP
HERCEPTIN®; 254 ± 3 mg/mL HERCEPTIN
  Viscosity: 78.0 ± 8.7 cP
HERCEPTIN®; 270 ± 6 mg/mL HERCEPTIN
  Viscosity: 96.7 ± 4.7 cP
TYSABRI®; 237 ± 4 mg/mL TYSABRI
  Viscosity: 47.1 ± 2.1 cP
TYSABRI®; 276 ± 8 mg/mL TYSABRI
  Viscosity: 92.9 ± 2.6 cP
VECTIBIX®; 264 mg/mL VECTIBIX
  Viscosity: 44.3 ± 2.3 cP
VECTIBIX®; 233 ± 4 mg/mL VECTIBIX
  Viscosity: 26.2 ± 6.5 cP
VECTIBIX®; 252 ± 3 mg/mL VECTIBIX
  Viscosity: 27.4 ± 1.2 cP
VECTIBIX®; 291 ± 3 mg/mL VECTIBIX
  Viscosity: 162 ± 1 cP
ARZERRA®
  Viscosity: 125 ± 7 cP
REMICADE® [2]; expelled through 27 gauge needle, REMICADE 224-230 mg/mL (per agent)
  % Monomer: 99.5 ± 0.1%
REMICADE® [2]; expelled through 29 gauge needle, REMICADE 224-230 mg/mL (per agent)
  % Monomer: 99.4 ± 0.2%
REMICADE® [2]; expelled through 31 gauge needle, REMICADE 224-230 mg/mL (per agent)
  % Monomer: 99.5 ± 0.2%
REMICADE® [2]; pre-syringe, REMICADE 220-230 mg/mL (per agent)
  % Monomer: 99.7 ± 0.3%
antigen; day 0
  % binding (normalized to drug product): 88.6 ± 5.2%
antigen; day 7
  % binding (normalized to drug product): 114 ± 2.4%
Sprague-Dawley rats; no longer evident by day 4
  Microscopic examination of injection sites: very minor, clinically insignificant, irritative effect
Sprague-Dawley rats; throughout the study
  Observed consequences of the injections compared with saline: macroscopically similar
Sprague-Dawley rats; various time points
  Edema scores (Draize) at injection sites: 0-2
REMICADE® [3]; 27 gauge needle
  Syringe Force: 18.4 N
REMICADE® [3]; 29 gauge needle
  Syringe Force: 24.9 N
REMICADE® [3]; 31 gauge needle
  Syringe Force: 33.0 N
REMICADE® [4]; day 0
  % Monomer: 99.9 ± 0.1%
REMICADE® [4]; day 4
  % Monomer: 97.9 ± 0%
REMICADE® [4]; day 7
  % Monomer: 100 ± 0%
Biosimilar ERBITUX®; 0.25 M CSAA, 202±5, 229±5, 253±4 mg/mL mAb, 25° C., FIG. 5
  pH of viscosity minimum: ~7.0
Biosimilar ERBITUX®; 222 ± 5 mg/mL mAb, 25° C.
  Viscosity: 52.5 ± 1.0 cP
  Fold Reduction: 21.5 fold
Biosimilar ERBITUX®; 225 ± 5 mg/mL mAb, 20° C.
  Viscosity: 79.6 ± 0.9 cP
Biosimilar ERBITUX®; 225 ± 5 mg/mL mAb, 25° C.
  Viscosity: 58.0 ± 0.3 cP
Biosimilar ERBITUX®; 225 ± 5 mg/mL mAb, 30° C.
  Viscosity: 46.9 ± 0.6 cP
Biosimilar ERBITUX®; 222 ± 5 mg/mL mAb, 25° C., listed as CSA Arginine
  Fold Reduction: 21.5 fold
Biosimilar RITUXAN®
  Viscosity: 78.4 ± 0.3

From patent publication US9925263B2, “Liquid pharmaceutical formulations for injection comprising procaine and uses thereof” (EAGLE BIOLOGICS, INC., priority 2013, dated 2018)
